# Assay results published in the supplement of paper PMC10307832.
# Tests used:
# Test in all cases: relative viability (nuclei count vs DMSO), 5 days (fraction); higher = more cells survive
# [1] = compound: COc1cc2ncn(-c3cc(OCc4ccccc4C(F)(F)F)c(C(N)=O)s3)c2cc1OC + O=C(c1cc(Cc2n[nH]c(=O)c3ccccc23)ccc1F)N1CCN(C(=O)C2CC2)CC1 [Olaparib] (partner 8 µM)
# Outline: (§1)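 Dosing by pin tool came one day after lung cancer cell lines were seeded in 1536-well plates, using either one drug or a fixed anchor-drug dose plus five library-drug doses (not always all listed) in √10 steps. After 5 days, nuclei were counted on 4× images. Relative viability is treated-well nuclei count divided by vehicle-well nuclei count, and values are medians of duplicate plates.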
# [2] = compound: COc1cc2ncn(-c3cc(OCc4ccccc4C(F)(F)F)c(C(N)=O)s3)c2cc1OC + N=C(N)NC(=N)NCCc1ccccc1 [Phenformin] (partner 250 µM)
# Outline: as §1
# [3] = compound: COc1cc2ncn(-c3cc(OCc4ccccc4C(F)(F)F)c(C(N)=O)s3)c2cc1OC + CS(=O)(=O)CCNCc1ccc(-c2ccc3ncnc(Nc4ccc(OCc5cccc(F)c5)c(Cl)c4)c3c2)o1 [Lapatinib] (partner 2 µM)
# Outline: as §1
# [4] = compound: COc1cc2ncn(-c3cc(OCc4ccccc4C(F)(F)F)c(C(N)=O)s3)c2cc1OC + CC(=O)Nc1cccc(-n2c(=O)n(C3CC3)c(=O)c3c(Nc4ccc(I)cc4F)n(C)c(=O)c(C)c32)c1 [Trametinib] (partner 0.02 µM)
# Outline: as §1
Cell Line,relative viability ([1]; first compound 0.05 µM),relative viability ([1]; first compound 0.1581 µM),relative viability ([1]; first compound 0.5 µM),relative viability ([1]; first compound 1.581 µM),relative viability ([1]; first compound 5 µM),relative viability ([2]; first compound 0.05 µM),relative viability ([2]; first compound 0.1581 µM),relative viability ([2]; first compound 0.5 µM),relative viability ([2]; first compound 1.581 µM),relative viability ([2]; first compound 5 µM),relative viability ([3]; first compound 0.05 µM),relative viability ([3]; first compound 0.1581 µM),relative viability ([3]; first compound 0.5 µM),relative viability ([3]; first compound 1.581 µM),relative viability ([3]; first compound 5 µM),relative viability ([4]; first compound 0.05 µM),relative viability ([4]; first compound 0.1581 µM),relative viability ([4]; first compound 0.5 µM),relative viability ([4]; first compound 1.581 µM),relative viability ([4]; first compound 5 µM)
NCI-H727,0.676,0.672,0.68,0.489,0.535,0.652,0.432,0.372,0.363,0.399,0.803,0.694,0.541,0.338,0.296,0.431,0.377,0.338,0.385,0.396
NCI-H1993,0.952,1.14,0.742,0.535,0.462,0.474,0.527,0.5,0.495,0.428,0.954,0.852,0.594,0.466,0.51,0.473,0.499,0.387,0.345,0.427
NCI-H1437,0.658,0.511,0.272,0.232,0.194,0.352,0.223,0.117,0.123,0.12,0.865,0.699,0.243,0.136,0.113,0.577,0.376,0.19,0.205,0.234
NCI-H596,0.542,0.692,0.765,0.413,0.306,0.81,0.811,0.466,0.397,0.275,1.1,1.22,0.911,0.586,0.33,0.469,0.695,0.802,0.439,0.297
201T,0.747,0.83,0.871,0.27,0.246,0.482,0.252,0.413,0.242,0.205,1.04,1.03,1.01,0.708,0.299,0.707,0.728,0.691,0.647,0.301
NCI-H358,0.552,0.516,0.195,0.0846,0.078,0.3,0.321,0.162,0.0752,0.0692,0.553,0.435,0.371,0.175,0.145,0.146,0.114,0.104,0.116,0.096
NCI-H1650,0.757,0.659,0.305,0.114,0.204,0.389,0.341,0.175,0.129,0.179,0.789,0.853,0.293,0.196,0.186,0.631,0.515,0.35,0.143,0.139
LOU-NH91,0.893,0.89,0.688,0.382,0.273,0.734,0.855,0.526,0.297,0.432,0.768,0.793,0.676,0.444,0.499,0.783,0.776,0.719,0.52,0.295
HOP-62,0.387,0.38,0.302,,0.116,0.67,0.664,0.53,0.15,0.108,1.01,1.08,0.829,0.233,0.121,0.35,0.284,0.348,0.163,0.136
NCI-H1915,0.232,0.211,0.176,0.108,0.0766,0.373,0.361,0.286,0.0964,0.0866,1.03,0.961,0.803,0.134,0.0963,0.227,0.172,0.24,0.117,0.0537
NCI-H3122,0.682,0.585,0.149,0.141,0.146,0.362,0.37,0.16,0.143,0.128,1.04,0.58,0.479,0.224,0.244,0.209,0.213,0.143,0.135,0.155
NCI-H1651,0.18,0.157,0.15,0.14,0.153,0.318,0.304,0.132,0.102,0.117,0.916,0.96,0.365,0.103,0.108,0.86,0.788,0.755,0.593,0.702
PC-14,0.216,0.246,0.0786,0.0384,0.0696,0.501,0.561,0.465,0.119,0.0948,0.33,0.353,0.318,,0.278,0.555,0.727,0.281,0.053,0.0472
NCI-H647,0.474,0.331,0.103,0.0536,0.0596,0.537,0.509,0.101,0.0685,0.069,0.97,0.935,0.448,0.0772,0.0798,0.544,0.388,0.279,0.0866,0.079
SW 1573,0.442,0.428,0.188,0.103,0.119,0.232,0.413,0.143,0.103,0.0927,1.14,0.445,0.918,0.217,0.739,0.545,0.56,0.41,0.11,0.0977
NCI-H661,0.68,0.681,0.349,0.332,0.274,0.28,0.249,0.2,0.21,0.18,0.431,0.517,0.467,0.18,0.251,0.692,0.491,0.299,0.244,0.219

Cell Line,relative viability ([1]; first compound 0.05 µM),relative viability ([1]; first compound 0.1581 µM),relative viability ([1]; first compound 0.5 µM),relative viability ([1]; first compound 1.581 µM),relative viability ([1]; first compound 5 µM),relative viability ([2]; first compound 0.05 µM),relative viability ([2]; first compound 0.1581 µM),relative viability ([2]; first compound 0.5 µM),relative viability ([2]; first compound 1.581 µM),relative viability ([2]; first compound 5 µM),relative viability ([3]; first compound 0.05 µM),relative viability ([3]; first compound 0.1581 µM),relative viability ([3]; first compound 0.5 µM),relative viability ([3]; first compound 1.581 µM),relative viability ([3]; first compound 5 µM),relative viability ([4]; first compound 0.05 µM),relative viability ([4]; first compound 0.1581 µM),relative viability ([4]; first compound 0.5 µM),relative viability ([4]; first compound 1.581 µM),relative viability ([4]; first compound 5 µM)
SK-MES-1,0.62,0.526,0.309,0.165,0.186,0.559,0.636,0.234,0.197,0.121,0.445,0.459,0.482,,0.335,0.578,0.623,0.538,0.177,0.228
NCI-H1792,0.152,0.273,0.457,0.0375,0.0338,0.324,0.279,0.256,0.0695,0.0567,0.935,0.834,0.868,0.24,0.0845,0.305,0.43,0.275,0.0525,0.0332
NCI-H1355,0.486,0.671,0.3,0.15,0.128,0.453,0.434,0.358,0.17,0.161,0.966,0.964,0.771,0.22,0.152,0.274,0.403,0.326,0.176,0.127
UMC-11,0.313,0.293,0.21,0.185,0.159,0.271,0.201,0.158,0.173,0.168,0.991,0.917,0.348,0.195,0.136,0.543,0.195,0.194,0.156,0.12
NCI-H2347,0.491,0.569,0.504,0.513,0.471,0.361,0.374,0.493,0.353,0.277,0.943,0.788,0.858,0.507,0.62,0.287,0.28,0.299,0.268,0.282
LCLC-97TM1,0.201,0.222,0.189,0.0731,0.0698,0.398,0.492,0.353,0.154,0.148,0.802,0.893,0.343,0.175,0.161,0.178,0.149,0.148,0.0713,0.0862
EMC-BAC-2,0.467,0.48,0.359,0.259,0.216,0.545,0.528,0.465,0.215,0.142,0.998,0.944,0.786,0.228,0.216,0.977,0.689,0.872,0.629,0.298
NCI-H1975,0.464,0.651,0.319,0.168,0.146,0.44,0.392,0.229,0.162,0.113,0.862,0.809,0.411,0.189,0.161,0.369,0.192,0.182,0.135,0.155
BEN,1.11,1.01,0.636,0.425,0.359,0.262,0.28,0.217,0.218,0.206,0.696,0.526,0.56,0.256,0.212,1.16,1.03,0.954,0.546,0.52
NCI-H23,0.187,0.239,0.166,0.128,0.0947,0.798,0.821,0.433,0.129,0.125,1.22,0.789,0.451,0.159,0.141,0.29,0.271,0.198,0.123,0.0957
NCI-H520,0.198,0.247,0.193,0.182,0.142,0.598,0.642,0.269,0.266,0.211,1.01,0.814,0.387,0.172,0.149,0.644,0.561,0.236,0.171,0.166
CAL-12T,0.563,0.676,0.415,0.189,0.188,0.524,0.339,0.21,0.153,0.138,0.647,0.708,0.379,0.228,0.156,0.387,0.278,0.272,0.178,0.161
EPLC-272H,0.177,0.221,0.0762,0.0805,0.146,,0.323,0.151,0.135,0.15,0.976,0.867,0.527,0.111,0.0981,0.285,0.234,0.216,0.154,0.163
NCI-H2405,0.795,0.809,0.326,0.312,0.331,0.437,0.274,0.29,0.322,0.246,1.12,0.882,0.669,0.402,0.323,0.672,0.412,0.47,0.367,0.311
HCC-15,0.566,0.446,0.232,0.131,0.14,0.486,0.383,0.204,0.122,0.0883,0.861,0.731,0.602,0.135,0.114,0.227,0.378,0.259,0.112,0.0946
RERF-LC-KJ,0.937,0.945,0.24,0.233,0.253,0.376,0.396,0.229,0.272,0.259,0.939,0.987,0.839,,0.689,0.935,0.915,0.57,0.456,0.5
